Measurements as given in patent US8207177B2, “Inhibitors of E1 activating enzymes” (Millennium Pharmaceuticals, Inc., priority 2006, dated 2012).

molecular target: T1, recombinant human NAE enzyme (Homo sapiens, UniProt Q8TBC4); experiment: Nedd8-Activating Enzyme (NAE) HTRF Assay; assay type: biochemical; conditions: threshold statement: less than or equal to 100 nM; 20 μM ATP, 90 minutes at 24° C.
T1 construct: His (N); made in house; host or cells: Sf9 insect cells (baculovirus, Bac-to-Bac), purified on Ni-NTA
T1 sequence (Q8TBC4 1-463): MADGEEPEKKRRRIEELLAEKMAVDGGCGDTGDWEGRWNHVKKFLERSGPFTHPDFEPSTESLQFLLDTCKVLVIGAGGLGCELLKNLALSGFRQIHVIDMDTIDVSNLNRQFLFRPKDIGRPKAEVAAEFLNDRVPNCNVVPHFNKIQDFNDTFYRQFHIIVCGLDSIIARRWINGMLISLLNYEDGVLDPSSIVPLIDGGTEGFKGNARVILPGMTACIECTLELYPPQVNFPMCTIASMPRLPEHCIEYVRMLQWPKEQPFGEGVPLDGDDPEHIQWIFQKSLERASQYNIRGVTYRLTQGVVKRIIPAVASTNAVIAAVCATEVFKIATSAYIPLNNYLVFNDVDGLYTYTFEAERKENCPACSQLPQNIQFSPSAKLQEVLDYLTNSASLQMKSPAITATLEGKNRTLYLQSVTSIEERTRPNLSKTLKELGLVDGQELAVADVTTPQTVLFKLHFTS
T1 sequence (Q13564 1-534 partner): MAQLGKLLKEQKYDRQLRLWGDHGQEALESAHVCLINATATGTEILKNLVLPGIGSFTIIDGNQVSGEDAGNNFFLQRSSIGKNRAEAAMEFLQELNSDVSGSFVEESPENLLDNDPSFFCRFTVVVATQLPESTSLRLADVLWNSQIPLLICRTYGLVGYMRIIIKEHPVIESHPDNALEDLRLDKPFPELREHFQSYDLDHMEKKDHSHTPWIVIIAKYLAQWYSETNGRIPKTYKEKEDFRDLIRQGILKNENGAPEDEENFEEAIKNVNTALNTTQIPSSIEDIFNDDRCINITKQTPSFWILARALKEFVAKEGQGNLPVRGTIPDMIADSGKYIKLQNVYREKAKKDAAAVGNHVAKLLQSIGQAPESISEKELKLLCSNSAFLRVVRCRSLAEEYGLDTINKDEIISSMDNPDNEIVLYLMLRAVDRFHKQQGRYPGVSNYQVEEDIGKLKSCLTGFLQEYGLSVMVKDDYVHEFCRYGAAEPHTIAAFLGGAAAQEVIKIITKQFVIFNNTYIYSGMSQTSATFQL
Protocol: Following manufacturer instructions, baculoviruses were generated with the Bac-to-Bac Expression System (Invitrogen) for the following proteins: untagged NAEα (APPBP1; NP_003896.1), N-terminally His-tagged NAEβ (UBE1C; NP_003959.3), untagged SAEα (SAE1; NP_005491.1), N-terminally His-tagged SAEβ (UBA2; NP_005490.1), N-terminally His-tagged murine UAE (UBE1X; NP_033483). NAEα/His-NAEβ and SAEα/His-SAEβ complexes were generated by co-infection of Sf9 cells, which were harvested after 48 hours. His-mUAE was generated by single infection of Sf9 cells and harvested after 72 hours. Expressed proteins were purified by affinity chromatography (Ni—NTA agarose, Qiagen) using standard buffers. Ubc12 (UBE2M; NP_003960.1), Ubc9 (UBE2I; NP_003336.1), Ubc2 (UBE2A; NP_003327.2) were subcloned into pGEX (Pharmacia) and expressed as N-terminally GST tagged fusion proteins in E. coli. Expressed proteins were purified by conventional affinity chromatography using standard buffers. Nedd8 (NP_006147), Sumo-1 (NP_003343) and Ubiquitin (with optimized codons) were subcloned into pFLAG-2 (Sigma) and expressed as N-terminally Flag tagged fusion proteins in E. coli. Expressed proteins were purified by conventional chromatography using standard buffers. Nedd8-Activating Enzyme (NAE) HTRF Assay. The NAE enzymatic reaction totaled 50 μL and contained 50 mM HEPES (pH 7.5), 0.05% BSA, 5 mM MgCl2, 20 μM ATP, 250 μM GSH, 0.01 μM Ubc12-GST, 0.075 μM Nedd8-Flag and 0.28 nM recombinant human NAE enzyme. The enzymatic reaction mixture, with and without compound inhibitor, was incubated at 24° C. for 90 minutes in a 384-well plate before termination with 25 μL of Stop/Detection buffer (0.1M HEPES pH 7.5, 0.05% Tween20, 20 mM EDTA, 410 mM KF, 0.53 nM Europium-Cryptate labeled monoclonal anti-FLAG M2 antibody (CisBio International) and 8.125 μg/mL PHYCOLINK goat anti-GST allophycocyanin (XL-APC) antibody (Prozyme)). After incubation for 3 hours at 24° C., quantification of the FRET was performed on the Analyst™ HT 96.384 (Molecular Devices).

| IC50 [µM] | SMILES |
| --- | --- |
| ≤ 0.1 | NS(=O)(=O)OC1CC(n2ccc3c(N[C@H]4CCc5ccccc54)ncnc32)CC1O (stereo in doubt) [Compound I-78, (1R,2S,4S)-4-{4-[(1S)-2,3-dihydro-1H-inden-1-ylamino]-7H-pyrrolo[2,3-d]pyrimidin-7-yl}-2-hydroxycyclopentyl sulfamate] |
| ≤ 0.1 | NS(=O)(=O)OC[C@@H]1C[C@@H](n2ccc3c(N[C@H]4CCc5cc(Cl)ccc54)ncnc32)C[C@@H]1O [Compound I-27, [(1S,2S,4R)-4-(4-}[(1S)-5-chloro-2,3-dihydro-1H-inden-1-yl]amino}-7H-pyrrolo-[2,3-d]pyrimidin-7-yl)-2-hydroxycyclopentyl]methyl sulfamate] |
| ≤ 0.1 | NS(=O)(=O)OC[C@@H]1C[C@@H](n2ccc3c(N[C@H]4CCCc5ccccc54)ncnc32)C[C@@H]1O [Compound I-37, ((1S,2S,4R)-2-hydroxy-4-{4-[(1S)-1,2,3,4-tetrahydronaphthalen-1-ylamino]-7H-pyrrolo[2,3-d]pyrimidin-7-yl}cyclopentyl)methyl sulfamate] |
| ≤ 0.1 | COC[C@@H]1Cc2ccccc2[C@@H]1Nc1ncnc2c1ccn2[C@@H]1C[C@@H](COS(N)(=O)=O)[C@@H](O)C1 [Compound I-79, [(1S,2S,4R)-2-hydroxy-4-(4-{[(1R,2R)-2-(methoxymethyl)-2,3-dihydro-1H-inden-1-yl]amino}-7H-pyrrolo[2,3-d]pyrimidin-7-yl)cyclopentyl]methyl sulfamate] |
| ≤ 0.1 | CC1(C)C[C@H](Nc2ncnc3c2ccn3[C@@H]2C[C@@H](COS(N)(=O)=O)[C@@H](O)C2)c2ccc(Cl)cc21 [Compound I-67, [(1S,2S,4R)-4-(4-{[(1S)-5-chloro-3,3-dimethyl-2,3-dihydro-1H-inden-1-yl]amino)-7H-pyrrolo[2,3-d]pyrimidin-7-yl)-2-hydroxycyclopentyl]methyl sulfamate] |
| ≤ 0.1 | NS(=O)(=O)OC[C@@H]1C[C@@H](n2ccc3c(N[C@H]4CCc5c(Cl)cccc54)ncnc32)C[C@@H]1O [Compound I-64, [(1S,2S,4R)-4-(4-{[(1S)-4-chloro-2,3-dihydro-1H-inden-1-yl]amino}-7H-pyrrolo[2,3-d]pyrimidin-7-yl)-2-hydroxycyclopentyl]methyl sulfamate] |
| ≤ 0.1 | CO[C@H]1CCc2ccccc2[C@H]1Nc1ncnc2c1ccn2[C@@H]1C[C@@H](COS(N)(=O)=O)[C@@H](O)C1 [Compound I-85, [(1S,2S,4R)-2-hydroxy-4-(4-{[(1R,2S)-2-methoxy-1,2,3,4-tetrahydronaphthalen-1-yl]amino}-7H-pyrrolo[2,3-d]pyrimidin-7-yl)cyclopentyl]methyl sulfamate] |
| ≤ 0.1 | CO[C@@H]1Cc2ccccc2[C@H]1Nc1ncnc2c1ccn2[C@@H]1C[C@@H](COS(N)(=O)=O)[C@@H](O)C1 [Compound I-72, [(1S,2S,4R)-2-hydroxy-4-(4-{[(1R,2R)-2-methoxy-2,3-dihydro-1H-inden-1-yl]amino}-7H-pyrrolo[2,3-d]pyrimidin-7-yl)cyclopentyl]methyl sulfamate] |
| ≤ 0.1 | NS(=O)(=O)OC[C@@H]1C[C@@H](n2ccc3c(NCc4cccc(Cl)c4)ncnc32)C[C@@H]1O [Compound I-51, ((1S,2S,4R)-4-{4-[(3-chlorobenzyl)amino]-7H-pyrrolo[2,3-d]pyrimidin-7-yl}-2-hydroxycyclopentyl)methyl sulfamate] |
| ≤ 0.1 | NS(=O)(=O)OC[C@@H]1C[C@@H](n2ccc3c(N[C@H]4CCc5c(F)cccc54)ncnc32)C[C@@H]1O [Compound I-61, [(1S,2S,4R)-4-(4-{[(1S)-4-fluoro-2,3-dihydro-1H-inden-1-yl]amino}-7H-pyrrolo[2,3-d]pyrimidin-7-yl)-2-hydroxycyclopentyl]methyl sulfamate] |

The remaining lines, values behind:

| SMILES | IC50 [µM] |
| --- | --- |
| NS(=O)(=O)OC[C@@H]1C[C@@H](n2ccc3c(NCC4CCCCC4)ncnc32)C[C@@H]1O [Compound I-29, ((1S,2S,4R)-4-{4-[(cyclohexylmethyl)amino]-7H-pyrrolo[2,3-d]pyrimidin-7-yl)-2-hydroxycyclopentyl)methyl sulfamate] | ≤ 0.1 |
| NS(=O)(=O)OC[C@@H]1C[C@@H](n2ccc3c(NCc4c(F)cccc4F)ncnc32)C[C@@H]1O [Compound I-15, ((1S,2S,4R)-4-{4-[(2,6-dif1uorobenzyl)amino]-7H-pyrrolo[2,3-d]pyrimidin-7-yl}-2-hydroxycyclopentyl)methyl sulfamate] | ≤ 0.1 |
| C[C@@H](c1ccccc1)N(C)c1ncnc2c1ccn2[C@@H]1C[C@@H](COS(N)(=O)=O)[C@@H](O)C1 [Compound I-3, [(1S,2S,4R)-2-hydroxy-4-(4-{methyl[(1S)-1-phenylethyl]amino}-7H-pyrrolo-[2,3-d]pyrimidin-7-yl)cyclopentyl]methyl sulfamate] | ≤ 0.1 |
| Cc1cc(CNc2ncnc3c2ccn3[C@@H]2C[C@@H](COS(N)(=O)=O)[C@@H](O)C2)no1 [Compound I-41, [(1S,2S,4R)-2-hydroxy-4-(4-{[(5-methylisoxazol-3-yl)methyl]amino}-7H-pyrrolo-[2,3-d]pyrimidin-7-yl)cyclopentyl]methyl sulfamate] | ≤ 0.1 |
| NS(=O)(=O)OC[C@@H]1C[C@@H](n2ccc3c(NCC4CC4)ncnc32)C[C@@H]1O [Compound I-25, ((1S,2S,4R)-4-{4-[(cyclopropylmethyl)amino]-7H-pyrrolo[2,3-d]pyrimidin-7-yl}-2-hydroxycyclopentyl)methyl sulfamate] | ≤ 0.1 |
| NS(=O)(=O)OC[C@@H]1C[C@@H](n2ccc3c(NCc4ccc(Cl)c(Cl)c4)ncnc32)C[C@@H]1O [Compound I-24, ((1S,2S,4R)-4-{4-[(3,4-dichlorobenzyl)amino]-7H-pyrrolo[2,3-d]pyrimidin-7-yl}-2-hydroxycyclopentyl)methyl sulfamate] | ≤ 0.1 |
| CNc1ncnc2c1ccn2[C@@H]1C[C@@H](COS(N)(=O)=O)[C@@H](O)C1 [Compound I-40, {(1S,2S,4R)-2-hydroxy-4-[4-(methylamino)-7H-pyrrolo[2,3-d]pyrimidin-7-yl]-cyclopentyl}methyl sulfamate] | ≤ 0.1 |
| NS(=O)(=O)OC[C@@H]1C[C@@H](n2ccc3c(NCc4ccc(C(F)(F)F)cc4)ncnc32)C[C@@H]1O [Compound I-8, [(1S,2S,4R)-2-hydroxy-4-(4-{[4-(trifluoromethyl)benzyl]amino}-7H-pyrrolo-[2,3-d]pyrimidin-7-yl)cyclopentyl]methyl sulfamate] | ≤ 0.1 |
| NS(=O)(=O)OC[C@@H]1C[C@@H](n2cnc3c(NCc4ccc(Cl)cc4)ncnc32)C[C@@H]1O [Compound I-23, ((1S,2S,4R)-4-{6-[(4-chlorobenzyl)amino]-9H-purin-9-yl}-2-hydroxycyclopentyl)methyl sulfamate] | ≤ 0.1 |
| CC(C)(Cc1ncnc2c1ccn2[C@@H]1C[C@@H](COS(N)(=O)=O)[C@@H](O)C1)c1ccccc1 [Compound I-50, {(1S,2S,4R)-2-hydroxy-4-[4-(2-methyl-2-phenylpropyl)-7H-pyrrolo[2,3-d]-pyrimidin-7-yl]cyclopentyl}methyl sulfamate] | ≤ 0.1 |
